Source: patent US20230220443A1, “CHARACTERIZATION OF S-ADENOSYL-L-METHIONINE-CONSUMING ENZYMES WITH 1-STEP EZ-MTASE: A UNIVERSAL COUPLED-ASSAY” (ALBERT EINSTEIN COLLEGE OF MEDICINE, priority 2017, published 2023)
Where “and” joins values, the source holds several entries; their conditions need not be identical. Equal entries are not always repeated. Where two headings read alike, the source gives them in different places.

How the values were obtained:
[1] = pKa from pH-dependence of fluorescence; assay type: physicochemical; details: 50 mM buffer series
Protocol: Calibration of fluorescence signal for the 8-aza-A to 8-aza-I reaction—This procedure is very similar to the one described under “Differential Extinction Coefficients (Δε) for Deaminase Reaction”. Briefly, standard solutions (240 μL) of 8-aza-adenosine (0-25 μM; 12 data points) containing 50 mM buffer (pH 5.00-9.50), 10% glycerol and 1 mM βME, were loaded into a […] black flat bottom plate. 10-μL water per well were added to one data-set (12 concentrations of 8-aza-adensoine); 10-μL TM0936 solution (24.05 μM) were added to the remaining samples (12 concentrations of 8-azaadenosine at various pH values). The loss of fluorescence (Em=360 nm) from 8-azaadenosine standard solutions (Ex=282/292 nm) where recorded with a Spectramax M5 plate reader until no change in signal could be observed.
At a same pH, the comparison between end-point deaminase reactions and reference well (TM0936 added but no 8-aza-adenosine) provided the pH-dependence of 8-azainosyl fluorescence. […] Furthermore, the comparison between end-point deaminase reactions and reference well (various 8-aza-adenosine concentrations but no TM0936 added) provided the calibration curve of fluorescence signal for the 8-aza-adenosine to 8-aza-ionisine reaction. […]

[2] = pKa from pH-dependence of differential extinction coefficient (UV); assay type: physicochemical
Protocol: Nucleoside concentrations (stock solutions) were determined using known extinction coefficients for: adenosine, 259(ε/M^−1 cm^−1 15,400) and 8-aza-adenosine, 277(e/M-1 cm^−1 17,830). The deaminase reactions using these various substrates were performed in quartz cuvettes (1-cm light path; 3-mL reaction volume) and absorbance measurements were carried out with a NanoDrop 2000c (scan mode: 220-320 nm with multi scans superimposed; 37° C. and continuous stirring). Briefly, the 3-mL reactions contained 50 mM buffer (acetate: pH 4.00-5.00; MES: pH 5.00-6.50; phosphate: pH 5.80-8.00; TRIS: pH 7.50-8.50; CHES: pH 8.90-9.90), 1 mM βME and 10% glycerol. Five different concentrations of either adenosine or 8-aza-adenosine substrates were used (10, 20, 30, 40 and 50 μM). Mixtures were blanked before acquisition and reactions started upon addition of deaminase (TM0936, 2 μL of 240.5 μM enzyme stock). Over the course of the deaminase reaction (e.g. adenosine→inosine), optimum wavelengths at which the highest absorbance shift is observed were selected (i.e. adenosine reaction, λ=[…]; 8-aza-adenosine reaction, λ1=282 nm and λ2=292 nm). Scans were recorded until the absorbance at these monitored wavelengths reached a stable value (82). For each pH condition, the end-point absorbance shifts were plotted against initial nucleoside concentrations and fitted to a linear regression: each slope is a differential extinction coefficient (Δε) for deamination of the specific nucleoside substrate. Furthermore, the pH-dependence of differential extinction coefficient (Ae) for this deaminase reaction was obtained by plotting the pairs (Δε; pH) and fitting these to the following supplementary Eq. 2:
where ΔεHIGH pH and ΔεLOW pH are the extinction coefficient measured at optimum wavelengths (i.e. λ for adenosine and λ1 or λ2 for 8-aza-adenosine) for the deaminase reaction at high and low pH, respectively, and […] is the logarithm of acid dissociation constant for either inosine or 8-aza-inosine.

deaminase TM0936 = biological target: T1, deaminase TM0936 (Thermotoga maritima, UniProt Q9X034); experiment: Deamination by coupling enzyme TM0936; assay type: biochemical
T1 construct: polyhistidine; made in house; host or cells: bacteria
T1 sequence (Q9X034 1-406): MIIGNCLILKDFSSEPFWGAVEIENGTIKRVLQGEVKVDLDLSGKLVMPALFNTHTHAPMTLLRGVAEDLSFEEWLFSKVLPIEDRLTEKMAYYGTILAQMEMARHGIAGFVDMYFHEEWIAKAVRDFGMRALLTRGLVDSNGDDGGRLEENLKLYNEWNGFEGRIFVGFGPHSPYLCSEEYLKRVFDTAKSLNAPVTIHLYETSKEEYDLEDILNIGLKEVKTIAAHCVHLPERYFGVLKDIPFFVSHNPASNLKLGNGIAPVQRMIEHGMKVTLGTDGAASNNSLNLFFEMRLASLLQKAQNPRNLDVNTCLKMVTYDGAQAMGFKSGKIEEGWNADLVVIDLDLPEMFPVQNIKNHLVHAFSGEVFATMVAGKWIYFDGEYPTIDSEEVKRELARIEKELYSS
Protocol: FIG. 9A-9D. Sinefungin is a positive control compatible with the 1-Step EZ-MTase assay. (A) MTAN-based assays catabolize the methyltransferase inhibitor sinefungin (SIN). […] (C) pH-dependence of the reaction between sinefungin and TM0936. […] (D) Inhibition of the sarcosine/dimethylglycine methyltransferase by sinefungin. […] The initial methyltransfer rates were recorded at 263 nm. Further analysis provided the inhibition constant Ki (1.8±0.4 μM).

GsSDMT = biological target: T2, GsSDMT (Galdieria sulphuraria, UniProt M2XPA0); experiment: 1-Step EZ-MTase UV-based coupled assay, GsSDMT kinetics; assay type: biochemical; details: pH=7.80, co-substrate saturating
T2 sequence (M2XPA0 2-297): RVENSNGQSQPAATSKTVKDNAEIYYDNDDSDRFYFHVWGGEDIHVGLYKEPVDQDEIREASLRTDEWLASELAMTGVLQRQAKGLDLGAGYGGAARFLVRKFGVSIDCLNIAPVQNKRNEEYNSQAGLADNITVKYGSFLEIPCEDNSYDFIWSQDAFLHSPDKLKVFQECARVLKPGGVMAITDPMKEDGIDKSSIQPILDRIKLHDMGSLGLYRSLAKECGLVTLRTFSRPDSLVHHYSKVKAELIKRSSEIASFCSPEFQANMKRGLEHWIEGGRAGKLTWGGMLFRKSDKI
Protocol: Kinetic behavior for sarcosine against GsSDMT (SAM sat.)—Experiments were conducted following matching CePRMT5 protocol above. Briefly, the 100-μL mixtures from a same row contained 100 mM phosphate buffer pH=7.80, 1 mM βME, 5% glycerol, 100 μM MgCl2, 4 μM coupling deaminase TM0936, 976 nM GsSDMT and various sarcosine concentrations (0.5-12.5 mM; in the first well, sarcosine was omitted to account for background signal—natural decomposition of SAM). Reactions started upon addition of SAM (750 μM saturating final concentration), 60-μL volumes were transferred onto UV plate and absorbance was recorded. Initial rates were first corrected for background signal, and then plotted against sarcosine concentrations. Fit to the Michaelis-Menten equation provided corresponding kinetic parameters.
Kinetic behavior for SAM against GsSDMT (sarcosine sat.)—Experiments were conducted following matching CePRMT5 protocol above. Briefly, the measurements consisted of two experimental subsets: MTase reactions (both SAM and sarcosine added) and MTase blanks (SAM was added without sarcosine to account for natural SAM decomposition). The 100-μL reaction mixtures from a same row contained 100 mM phosphate buffer pH=7.80, 1 mM βME, 5% glycerol, 100 μM MgCl2, 4 μM coupling deaminase TM0936, 195 nM GsSDMT and various SAM concentrations (49.9-750.2 μM). Reactions started upon addition of either sarcosine (10 mM saturating final concentration; MTase reactions) or water (MTase blanks), 60-μL volumes were transferred onto UV plate and absorbance was recorded at 263 nm. Initial rates were first corrected for background signal, and then plotted against SAM concentrations. Fit to the Michaelis-Menten equation provided corresponding kinetic parameters.
Kinetic behavior for 8-aza-SAM against MTases (acceptor sat.)—Briefly, kinetic parameters were determined at 20° C. in a UV-Star 96-well flat bottom plate (Greiner Bio-One, #655801) by continuous monitoring of absorbance at 282 nm using a SpectraMax M5 instrument (Molecular Devices). As for SAM experiments, the measurements consisted of two experimental subsets: MTase reactions (both 8-aza-SAM and acceptor added) and MTase blanks (8-aza-SAM was added without acceptor to account for natural 8-aza-SAM decomposition). The 250-μL (60-μL) reaction mixtures from a same row contained 50 mM phosphate buffer pH=7.60 (7.80), 1 mM βME, 10% glycerol (5% glycerol, 100 μM MgCl2), 4 μM coupling deaminase TM0936, either 1.5 μM CePRMT5 or 402 nM TbPRMT7 (or 610 nM GsSDMT) and various 8-aza-SAM concentrations. […] Initial rates were first corrected for background signal, then plotted against 8-aza-SAM concentrations and fitted to the Michaelis-Menten equation to yield corresponding kinetic parameters.

[3] = cited from earlier work

OC[C@H]1O[C@@H](n2nnc3c(O)ncnc32)[C@H](O)[C@@H]1O [8-aza-inosine]
pKa ([1]; pH 5.00-9.50, Ex/Em 282/360 nm): 7.5 ± 0.03 | pKa ([1]; pH 5.00-9.50, Ex/Em 292/360): 7.54 ± 0.04 | pKa ([2]; 282 nm): 7.29 ± 0.03 | pKa ([2]; 292 nm): 7.3 ± 0.03

Nc1ncnc2c1ncn2[C@@H]1O[C@H](CSCC[C@H](N)C(=O)O)[C@@H](O)[C@H]1O [SAH, S-adenosyl-L-homocysteine]
Km (deaminase TM0936; room temperature): 600 ± 200 nM | kcat (deaminase TM0936; room temperature): 7.1 ± 0.4 s⁻¹

CNCC(=O)O [Sarcosine, sarcosine]
kcat (GsSDMT): 90 ± 5 min⁻¹ | pKa ([3]; methyl-amine group from sarcosine): 10.0 | pKa ([3]; sarcosine carboxylate): ≈ 2.2

Nc1ncnc2c1ncn2[C@@H]1O[C@H](CO)[C@@H](O)[C@H]1O [adenosine]
deamination by TM0936, slower than that of its 8-aza analog (deaminase TM0936; 10 μM substrate, 1 nM TM0936 (FIG. 7A)): 10 fold

OC[C@H]1O[C@@H](n2cnc3c(O)ncnc32)[C@H](O)[C@@H]1O [inosine]
pKa ([2]; 263 nm): 8.72 ± 0.09 | pKa ([3]; inosine, literature): 8.9 and 8.85
